Experimental data published in publication PMC5564600 (Oncotarget, 2017).

What was measured:
Assay in all cases: biochemical
Type in all cases: binding
panel of 442 kinases [1] = molecular target: T1, panel of 442 kinases (Homo sapiens, UniProt Q13470); details: kinase TNK1; for remaining activity at 1 µM: read-out: TNK1 (% of control at 1 µM)
T1 construct: purchased Ambit Biosciences (scanMAXX KINOMEscan)
T1 sequence (Q13470 1-666): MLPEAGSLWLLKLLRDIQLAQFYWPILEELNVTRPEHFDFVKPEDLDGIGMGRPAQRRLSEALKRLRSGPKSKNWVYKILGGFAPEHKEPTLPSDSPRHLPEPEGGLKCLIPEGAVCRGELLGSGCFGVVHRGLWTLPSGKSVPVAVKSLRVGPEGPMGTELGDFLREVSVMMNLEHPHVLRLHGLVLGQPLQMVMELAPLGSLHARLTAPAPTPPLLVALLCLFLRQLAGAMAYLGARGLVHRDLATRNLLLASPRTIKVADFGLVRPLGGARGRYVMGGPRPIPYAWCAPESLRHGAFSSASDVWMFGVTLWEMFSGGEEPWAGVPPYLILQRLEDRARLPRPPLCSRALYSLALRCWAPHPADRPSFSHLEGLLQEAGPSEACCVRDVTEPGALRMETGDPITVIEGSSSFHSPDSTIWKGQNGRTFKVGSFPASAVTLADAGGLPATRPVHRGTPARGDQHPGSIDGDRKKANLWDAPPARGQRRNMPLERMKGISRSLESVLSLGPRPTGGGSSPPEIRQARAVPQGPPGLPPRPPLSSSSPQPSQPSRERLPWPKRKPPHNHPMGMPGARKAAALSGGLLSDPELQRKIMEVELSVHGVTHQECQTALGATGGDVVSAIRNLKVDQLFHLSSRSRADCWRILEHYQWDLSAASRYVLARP

panel of 442 kinases [2] = molecular target: T2, panel of 442 kinases (Homo sapiens, UniProt O14920); details: kinase IKK-beta; for remaining activity at 1 µM: read-out: % of control at 1 µM
T2 construct: purchased Ambit Biosciences (scanMAXX KINOMEscan)
T2 sequence (O14920 1-756): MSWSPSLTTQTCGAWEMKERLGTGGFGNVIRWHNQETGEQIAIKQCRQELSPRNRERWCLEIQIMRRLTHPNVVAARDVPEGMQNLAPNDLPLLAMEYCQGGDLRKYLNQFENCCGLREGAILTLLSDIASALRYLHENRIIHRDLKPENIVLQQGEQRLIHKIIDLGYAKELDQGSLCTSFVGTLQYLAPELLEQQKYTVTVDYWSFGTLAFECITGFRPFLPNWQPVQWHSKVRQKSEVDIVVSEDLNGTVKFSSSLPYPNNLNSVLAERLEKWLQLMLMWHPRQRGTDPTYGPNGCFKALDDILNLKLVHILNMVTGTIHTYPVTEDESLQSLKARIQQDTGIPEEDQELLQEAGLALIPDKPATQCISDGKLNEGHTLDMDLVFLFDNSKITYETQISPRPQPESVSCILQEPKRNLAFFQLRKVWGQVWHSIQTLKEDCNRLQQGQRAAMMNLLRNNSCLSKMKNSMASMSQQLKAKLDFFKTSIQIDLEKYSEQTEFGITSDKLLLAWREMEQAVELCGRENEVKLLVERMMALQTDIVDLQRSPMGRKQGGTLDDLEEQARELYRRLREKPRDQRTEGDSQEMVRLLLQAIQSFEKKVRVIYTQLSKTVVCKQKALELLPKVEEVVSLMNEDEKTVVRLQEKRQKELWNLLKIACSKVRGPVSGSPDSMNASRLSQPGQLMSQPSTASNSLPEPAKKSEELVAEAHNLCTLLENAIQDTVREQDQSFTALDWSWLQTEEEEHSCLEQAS

panel of 442 kinases [3] = molecular target: T3, panel of 442 kinases (Homo sapiens, UniProt O95382); details: ASK2; for remaining activity at 1 µM: read-out: % of control at 1 µM
T3 construct: purchased Ambit Biosciences (scanMAXX KINOMEscan)
T3 sequence (O95382 1-1288): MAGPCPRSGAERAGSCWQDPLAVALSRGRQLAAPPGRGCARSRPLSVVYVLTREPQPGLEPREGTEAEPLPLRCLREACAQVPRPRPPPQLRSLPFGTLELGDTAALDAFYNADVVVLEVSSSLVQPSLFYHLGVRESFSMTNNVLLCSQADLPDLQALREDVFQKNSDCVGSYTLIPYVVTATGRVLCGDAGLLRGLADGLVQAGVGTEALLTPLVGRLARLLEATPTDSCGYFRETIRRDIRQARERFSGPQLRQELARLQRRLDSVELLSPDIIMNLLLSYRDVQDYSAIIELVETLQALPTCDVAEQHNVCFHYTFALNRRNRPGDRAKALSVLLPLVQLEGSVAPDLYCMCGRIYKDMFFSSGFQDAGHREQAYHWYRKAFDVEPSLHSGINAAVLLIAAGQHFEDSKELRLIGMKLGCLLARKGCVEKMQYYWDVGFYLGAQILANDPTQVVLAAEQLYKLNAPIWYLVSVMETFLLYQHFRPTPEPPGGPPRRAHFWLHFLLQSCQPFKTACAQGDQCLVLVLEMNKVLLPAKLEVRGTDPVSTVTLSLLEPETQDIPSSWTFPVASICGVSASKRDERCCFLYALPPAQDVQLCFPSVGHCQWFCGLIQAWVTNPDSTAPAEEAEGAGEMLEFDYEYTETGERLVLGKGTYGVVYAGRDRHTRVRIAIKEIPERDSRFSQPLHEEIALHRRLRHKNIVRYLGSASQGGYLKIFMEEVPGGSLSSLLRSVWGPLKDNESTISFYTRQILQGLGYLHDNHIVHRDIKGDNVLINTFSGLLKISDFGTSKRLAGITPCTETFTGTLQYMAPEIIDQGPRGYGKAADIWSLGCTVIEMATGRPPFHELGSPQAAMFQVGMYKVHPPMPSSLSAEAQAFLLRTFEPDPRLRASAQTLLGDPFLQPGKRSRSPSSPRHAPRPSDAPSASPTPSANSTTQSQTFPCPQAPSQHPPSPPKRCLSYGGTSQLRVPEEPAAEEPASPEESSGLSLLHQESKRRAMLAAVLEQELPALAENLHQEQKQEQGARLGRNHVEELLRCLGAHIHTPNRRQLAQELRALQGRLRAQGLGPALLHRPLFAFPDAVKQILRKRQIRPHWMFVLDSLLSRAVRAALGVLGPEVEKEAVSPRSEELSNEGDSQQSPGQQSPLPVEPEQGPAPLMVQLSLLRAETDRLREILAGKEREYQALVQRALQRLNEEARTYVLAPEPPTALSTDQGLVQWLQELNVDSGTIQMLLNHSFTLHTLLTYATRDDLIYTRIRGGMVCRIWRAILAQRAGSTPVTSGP

[4] = 10 µM, read-out: % of control at 10 µM

Row | SMILES | remaining activity at 1 µM (panel of 442 kinases [1]) [%] | remaining activity at 10 µM (panel of 442 kinases [1]; 10 µM, read-out: TNK1 (% of control at 10 µM)) [%] | remaining activity at 1 µM (panel of 442 kinases [2]) [%] | remaining activity at 10 µM (panel of 442 kinases [2]; [4]) [%] | remaining activity at 1 µM (panel of 442 kinases [3]) [%] | remaining activity at 10 µM (panel of 442 kinases [3]; [4]) [%]
1 | Nc1cc(C(F)(F)F)c(-c2cc(N3CCOCC3)nc(N3CCOCC3)n2)cn1 [Buparlisib] | 100 | 100 | 92 | 100 | 87 | 100
2 | Cn1c(=O)n(-c2ccc(C(C)(C)C#N)cc2)c2c3cc(-c4cnc5ccccc5c4)ccc3ncc21 [Dactolisib, 2-methyl-2-[4-(3-methyl-2-oxo-8-quinolin-3-yl-2,3-dihydroimidazo[4,5-c]quinolin-1-yl)-phenyl] propionitrile] | 88 |  | 73 |  | 90 | 
3 | COc1ncc(-c2ccc3nccc(-c4ccnnc4)c3c2)cc1NS(=O)(=O)c1ccc(F)cc1F [Omipalisib] | 100 |  | 100 |  | 91 | 
4 | FC(F)c1nc2ccccc2n1-c1nc(N2CCOCC2)nc(N2CCOCC2)n1 [ZSTK474, 2-(difluoromethyl)-1-[4,6-di(4-morpholinyl)-1,3,5-triazin-2-yl]-1H-benzimidazole] | 86 |  | 88 |  | 97 | 
